Our source for the Activity, Ratio and MIC values is ChEMBL document CHEMBL5532755, “Unveiling the potent activity of a synthetic ion transporter against multidrug-resistant Gram-positive bacteria and biofilms” (RSC Med Chem, 2024).

Test [1] relates to Cell membrane. The test is described as follows: Induction of membrane depolarization in methicillin-resistant Staphylococcus aureus ATCC 33591 assessed as depolarized bacterial cells by measuring green fluorescence at 10 to 15 ug/ml incubated for 4 hrs by DiOC2(3) dye based flow cytometry analysis (reference value: 27.3%). It is filed as cell membranes. The conditions noted are these: dose 10-15 µg/ml.

The subject of test [2] is Cell membrane. In words: Induction of membrane depolarization in methicillin-resistant Staphylococcus aureus ATCC 33591 assessed as depolarized bacterial cells by measuring red fluorescence at 10 to 15 ug/ml incubated for 4 hrs by DiOC2(3) dye based flow cytometry analysis (reference value: 63.8%). The test is classed as cell membranes. As to conditions: dose 10-15 µg/ml. In general terms: In flow cytometry, cells or beads pass a laser one at a time.

For test [3], the system named is Cell membrane. The test is described as follows: Induction of membrane depolarization in methicillin-resistant Staphylococcus aureus ATCC 33591 assessed as depolarized bacterial cells by measuring red to green fluorescence ratio at 10 to 15 ug/ml incubated for 4 hrs by DiOC2(3) dye based flow cytometry analysis. It is filed as cell membranes. The conditions noted are these: dose 10-15 µg/ml.

In test [4] the test system is Staphylococcus epidermidis. In words: Antibacterial activity against Staphylococcus epidermidis MTCC 3615 incubated for 16 to 18 hrs by broth dilution method. The test is classed as functional. As to conditions: time 16-18 hrs.
In test [5] the test system is Enterococcus faecium. The test is described as follows: Antibacterial activity against Enterococcus faecium ATCC 19634 incubated for 16 to 18 hrs by broth dilution method. The test is classed as functional. The conditions noted are these: time 16-18 hrs. Background: Dilution methods test growth across graded concentrations, often in twofold steps.
For test [6], the system named is Staphylococcus aureus. The test is described as follows: Antibacterial activity against vancomycin-resistant Staphylococcus aureus 1 incubated for 16 to 18 hrs by broth dilution method. The test is classed as functional. As to conditions: time 16-18 hrs.
The subject of test [7] is Staphylococcus aureus. The test is described as follows: Antibacterial activity against vancomycin-resistant Staphylococcus aureus 4 incubated for 16 to 18 hrs by broth dilution method. As to conditions: time 16-18 hrs. It is filed as functional.
Test [8] deals with Enterococcus faecium. In words: Antibacterial activity against vancomycin-resistant Enterococcus faecium 903 incubated for 16 to 18 hrs by broth dilution method. It is filed as functional. The conditions noted are these: time 16-18 hrs.
For test [9], the system named is Enterococcus faecium. The test is described as follows: Antibacterial activity against vancomycin-resistant Enterococcus faecium 909 incubated for 16 to 18 hrs by broth dilution method. It is filed as functional. As to conditions: time 16-18 hrs.
Test [10] relates to Staphylococcus aureus. The test is described as follows: Antibiofilm activity against methicillin-resistant Staphylococcus aureus ATCC 33591 assessed as eradication of enclosed biofilm measuring by reduction in green fluorescence at 32 ug/ml by Syto-9/PI staining based confocal laser scanning microscopy. It is filed as functional, organism-based. The conditions noted are these: dose 32.0 µg/ml.

The structures appear in SMILES notation. In brackets after ≈: the same amount, converted by molar mass. Activity calls are given as the source filed them.

As for `N#CC(C#N)=NNc1cccc(Cl)c1`, the values for the Activity in test [1] and in test [2] were 47.8% and 49.1%, respectively. In [3], the Ratio came to 1.1.

`CC(=O)NC[C@H]1CN(c2ccc(N3CCOCC3)c(F)c2)C(=O)O1` [LINEZOLID]: the MIC (commonly the smallest concentration in the dilution series that meets the test's criterion for growth inhibition) worked out at 2 µg/mL (≈ 5.93 µM) in [4]; 4 µg/mL (≈ 11.9 µM) in test [5]; 1 µg/mL (≈ 2.96 µM) in test [6]; 1 µg/mL (≈ 2.96 µM) in test [7]; 32 µg/mL (≈ 94.9 µM) in test [8]; 2 µg/mL (≈ 5.93 µM) in test [9].

For `CN[C@H](CC(C)C)C(=O)N[C@H]1C(=O)N[C@@H](CC(N)=O)C(=O)N[C@H]2C(=O)N[C@H]3C(=O)N[C@H](C(=O)N[C@H](C(=O)O)c4cc(O)cc(O)c4-c4cc3ccc4O)[C@H](O)c3ccc(c(Cl)c3)Oc3cc2cc(c3O[C@@H]2O[C@H](CO)[C@@H](O)[C@H](O)[C@H]2O[C@H]2C[C@](C)(N)[C@H](O)[C@H](C)O2)Oc2ccc(cc2Cl)[C@H]1O` [VANCOMYCIN], the MIC came out at 512 µg/mL (≈ 353 µM) in [6], 512 µg/mL (≈ 353 µM) in test [7], 1020 µg/mL (≈ 707 µM) in test [8] and 512 µg/mL (≈ 353 µM) in test [9]. Moreover, the outcome in [10] was inactive.
